{"source": "paper PMC6571972", "about": "(Pharmaceutics, 2019)", "key": {"[1]": {"system": "AtT20/D16v-F2 murine pituitary tumor cells", "test": "in vitro cytotoxicity, MTT assay", "assay_type": "cell-based", "method": "In vitro cytotoxicity: To evaluate the cytotoxicity of conjugates and metabolites, AtT20/D16v-F2 murine pituitary tumor cells obtained from American Type Culture Collection (ATCC, Bethesda, MD, USA) were used. Cell viability was determined using the MTT (3-(4,5-dimethyl thiaz ol-2-yl)-2,5-diphenyltetrazolium bromide) assay. Briefly, cells in DMEM supplemented with 10% FBS, 1% L-glutamine, and 1% penicillin/streptomycin were seeded in 96-well culture plates (3000 cells/well) and incubated overnight in a humidified, 37 °C, 5% CO2 atmosphere to allow for adherence. The following day, cells were treated with serial dilutions of each compound starting at 100 nM for free drugs and 1000 nM for each one of the conjugates and incubated as described for 2 h. 0.1% DMSO served as a control. After incubation, the cells were washed once, media replaced, and incubation continued for further 70 h. At the end of treatment, 5 µL of MTT solution (5 mg/mL in deionized H2O, Sigma #M5655) was added to each well and the cells were incubated for another 2 h. Finally, 100 µL of lysis buffer (10% SDS, 10 mM HCl) was added, and the cells were placed in the incubator overnight for the formazan crystal solubilization. Absorbance at 540 nm was measured using a FLUOstar Omega (BMG Labtech) microplate reader and the growth inhibition ratio was calculated. Blank controls detecting cell-free media absorbance were performed in parallel. Three experimental replicates were used. The half-maximal inhibitory concentration values (IC50) were obtained from viability curves while using GraphPad Prism 6. Cell viability was expressed as percentage relative to the respective control conditions."}, "[2]": {"conditions": "mouse; cited from earlier work"}, "[3]": {"conditions": "cited from earlier work"}, "[4]": {"target": "T1, human SSTR2 (Homo sapiens, UniProt P30874)", "T1 construct": "membrane extract (recombinant CHO-K1-SST2 (NP_001041.1), 25 µL, 0.2 µg); expressed in transfected cells; host or cells: CHO-K1", "T1 sequence (P30874 whole entry)": "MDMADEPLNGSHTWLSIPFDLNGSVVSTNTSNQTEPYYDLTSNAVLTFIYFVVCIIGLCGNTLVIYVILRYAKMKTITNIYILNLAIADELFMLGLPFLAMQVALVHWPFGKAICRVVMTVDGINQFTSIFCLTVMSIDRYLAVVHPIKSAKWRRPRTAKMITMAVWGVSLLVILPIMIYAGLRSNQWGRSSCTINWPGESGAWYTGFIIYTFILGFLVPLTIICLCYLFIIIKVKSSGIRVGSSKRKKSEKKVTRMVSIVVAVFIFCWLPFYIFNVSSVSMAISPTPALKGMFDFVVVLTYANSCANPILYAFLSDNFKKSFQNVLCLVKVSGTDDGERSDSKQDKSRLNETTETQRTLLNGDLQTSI", "test": "radioligand binding competition assay with SSTR2 membrane extract", "conditions": "competition with 3-[125I] iodotyrosyl11 Somatostatin 14, CHO-K1-SST2 membranes", "method": "The dilution of test compound (50 µL, maximum final DMSO concentration 3%), radioligand 3-[125I] iodotyrosyl11 Somatostatin 14 (Perkin Elmer, NEX389, 25 µL, 0.4 nM), and membrane extract (recombinant CHO-K1-SST2 (NP_001041.1), 25 µL, 0.2 µg) were successively added to a 96-well plate and then incubated at 25 °C for 60 min. It was filtered over GF/B Unifilter plate (Perkin Elmer, 6005177, pre-soaked in 0.5% PEI for 2 h at room temperature) with a Filtermate Harvester (Perkin Elmer). After rinsing the filters six times with 0.5 mL of ice-cold washing buffer (25 mM HEPES pH 7.4, 5 mM MgCl2, 1 mM CaCl2), 50 µL of Microscint 20 (Packard) was added to the filters and the samples were incubated 15 min on an orbital shaker and then counted with a TopCount™ for 1 min/well. The binding affinity was determined in duplicates by plotting the dose-response data to a nonlinear regression with variable slope."}, "[5]": {"test": "plasma stability in murine plasma", "assay_type": "in vitro ADME", "conditions": "mouse, 37 °C, read-out: Plasma Stability (t1/2 in h) Murine (converted)", "method": "(§1) Plasma stability: The sample preparation and the metabolic analysis of the conjugates was carried out similarly to the previously described method. Shortly, in a 96-well plate each conjugate and the control compound, procaine (3 mM, stock solution in DMSO) in three replicates were diluted with 250 μL of plasma to give a 3 µM concentration and then incubated at 37 °C. At each sample collecting time point, an aliquot of 30 µL was transferred into a 96-deep well plate and the reaction was stopped with 120 µL of acetonitrile containing 0.1% formic acid and 0.4 µg/mL of warfarin as the internal standard (IS). This mixture was centrifuged at 1100 ×g for 30 min at 4 °C and 50 µL of supernatant was transferred into a clean 96 deep-well plate and diluted with 50 µL of 0.1% formic acid in water. The samples were stored at -80 °C until analyses. Stability was determined based on LC-HRMS analysis of the disappearance of the compound as a function of incubation time, while using area ratio (analyte peak area vs internal standard peak area). The elimination constant k is calculated by plotting mean disappearance values on a semi-logarithmic scale and fitting with a best fit linear regression. The half-life (t1/2) expressed in hours is derived using the equation: t1/2 = ln2/(−k)."}, "[6]": {"test": "plasma stability in human plasma", "assay_type": "in vitro ADME", "conditions": "37 °C, read-out: Plasma Stability (t1/2 in h) Human (converted)", "method": "as §1"}, "[7]": {"system": "A549 cells", "test": "live cell confocal microscopy, conjugate internalization in A549 cells", "assay_type": "cell-based, human", "conditions": "A549 cells with low levels of SSTR2, 1 µM"}, "[8]": {"system": "AtT20 xenografts", "test": "in vivo tumor targeting, whole body imaging", "set-up": "species or system nude mice", "conditions": "1 mg/kg i.v.", "method": "Tumor targeting studies: The fluorescence-labeled conjugate 10 (1 mg/kg in 2% DMSO in water) was intravenously injected in nude mice bearing AtT20 tumors. At each time point, whole body imaging was acquired using the Lago optical imaging system (Spectral Instruments Imaging), while mice were under isoflurane anesthesia (2.5%/20% O2).\nFigure S1. Confocal microscopy images from conjugate 10 in SSTR2 positive cell line […]\nAnimal experiments were approved by the Committee for Animal Experiments of the […]\nFor in vivo tumor targeting and antitumor efficacy experiments, three million AtT20/D16v-F2 murine pituitary tumor cells in 100 µL PBS/Matrigel (v/v) were xenografted in the right flank of four-weeks-old female BALB/c nude mice (BALB/cAnNRj-Foxn1nu/nu, Janvier Labs). The experiments started around 15 days after implantation, when the animals started to show physical signs of the hormone releasing […]"}, "[9]": {"system": "AtT20 cells", "test": "live cell confocal microscopy, conjugate internalization in AtT20 cells", "assay_type": "cell-based, murine"}}, "note": "Where two headings read alike, the source gives them in different places.", "data": [{"smiles": "COc1ccc(C[C@H]2NC(=O)/C=C/C[C@@H]([C@H](C)[C@@H](OC(=O)CNC(=O)[C@@H]3CCCN3C(=O)CN)[C@@H](Cl)c3ccccc3)OC(=O)[C@H](CC(C)C)OC(=O)C(C)(C)CNC2=O)cc1Cl", "note": "[Gly-Pro-Cry-55gly]", "values": [{"measurement": "IC50", "setting": "[1]; Mus musculus, AtT20, 2 h treatment, wash, further 70 h, MTT, read-out: Cytotoxicity in AtT20 (IC50 in nM)", "value": 6.05, "unit": "nM"}]}, {"smiles": "COc1ccc(C[C@H]2NC(=O)/C=C/C[C@@H]([C@H](C)[C@@H](OC(=O)CN)[C@@H](Cl)c3ccccc3)OC(=O)[C@H](CC(C)C)OC(=O)C(C)(C)CNC2=O)cc1Cl", "note": "[compound 3, cryptophycin-55 glycinate]", "values": [{"measurement": "Plasma Stability (t1/2 in h) Murine", "setting": "[2]", "value": "> 24 [48] h"}, {"measurement": "IC50", "setting": "[1]; Mus musculus, AtT20, read-out: Cytotoxicity in AtT20 (IC50 in nM)", "value": 3.53, "unit": "nM"}, {"measurement": "Plasma Stability (t1/2 in h) Human", "setting": "[3]", "value": "> 24 [48] h"}]}, {"smiles": "COc1ccc(C[C@H]2NC(=O)/C=C/C[C@@H]([C@H](C)[C@@H](OC(=O)CNC(=O)CNC(=O)[C@@H]3CCCN3C(=O)[C@H](CCCNC(N)=O)NC(=O)[C@@H](NC(=O)CCOCCOCCOCCOCCn3cc(CCC(=O)N[C@H](Cc4ccccc4)C(=O)N[C@H]4CSSC[C@@H](C(=O)N[C@H](CO)[C@@H](C)O)NC(=O)[C@H]([C@@H](C)O)NC(=O)[C@H](CCCCN)NC(=O)[C@@H](Cc5c[nH]c6ccccc56)NC(=O)[C@H](Cc5ccccc5)NC4=O)nn3)C(C)C)[C@@H](Cl)c3ccccc3)OC(=O)[C@H](CC(C)C)OC(=O)C(C)(C)CNC2=O)cc1Cl", "note": "[compound 7]", "values": [{"measurement": "IC50", "setting": "[4]; read-out: Binding Affinity (IC50 in nM)", "value": 0.6, "unit": "nM"}, {"measurement": "half-life at 3 µM", "setting": "[5]", "value": 30, "unit": "min"}, {"measurement": "IC50", "setting": "[1]; 2 h treatment, wash, further 70 h, MTT, read-out: Cytotoxicity in AtT20 (IC50 in nM)", "value": 51.2, "unit": "nM"}, {"measurement": "half-life at 3 µM", "setting": "[6]", "value": 1380, "unit": "min"}]}, {"smiles": "CC(C)[C@H](NC(=O)CCOCCOCCOCCOCCn1cc(CCC(=O)N[C@H](Cc2ccccc2)C(=O)N[C@H]2CSSC[C@@H](C(=O)N[C@H](CO)[C@@H](C)O)NC(=O)[C@H]([C@@H](C)O)NC(=O)[C@H](CCCCN)NC(=O)[C@@H](Cc3c[nH]c4ccccc34)NC(=O)[C@H](Cc3ccccc3)NC2=O)nn1)C(=O)N[C@@H](CCCNC(N)=O)C(=O)NCC(=O)N1CCC[C@H]1C(=O)NCCCCCCNC(=O)CCCCC[N+]1=C(/C=C/C=C/C=C2N(C)c3ccc4ccccc4c3C2(C)C)C(C)(C)c2c1ccc1ccccc21", "note": "[compound 10]", "values": [{"measurement": "Binding Affinity (IC50 in nM)", "setting": "[4]", "value": "low nanomolar IC50"}, {"measurement": "internalization of the conjugate", "setting": "[7]", "value": "no internalization was observed"}, {"measurement": "accumulation in the tumor", "setting": "[8]; AtT20 xenografts", "value": "preferential accumulation"}, {"measurement": "duration of detection in tumor", "setting": "[8]; tumors around 50 mm^3", "value": "up to seven"}, {"measurement": "internalization of the conjugate with excess free ligand", "setting": "[9]; AtT20 cells, 100-fold excess of free octreotide", "value": "could be efficiently competed"}, {"measurement": "internalization of the conjugate", "setting": "[9]; SSTR2 expressing AtT20 cells, 1 µM, after 10 min", "value": "effective internalization"}]}]}
